{"source": "patent US12275731B2", "about": "“Azaindole inhibitors of wild-type and mutant forms of LRRK2” (DANA-FARBER CANCER INSTITUTE, INC., priority 2018, dated 2025)", "test_in_all_cases": "KinomeScan profiling", "type_in_all_cases": "binding", "key": {"EGFR(L747-T751del, Sins)": {"target": "EGFR(L747-T751del, Sins) (Homo sapiens, UniProt P00533, DEL747-750/T751S)", "sequence (P00533 with tags, fused parts or gaps DEL747-750/T751S limits assumed)": "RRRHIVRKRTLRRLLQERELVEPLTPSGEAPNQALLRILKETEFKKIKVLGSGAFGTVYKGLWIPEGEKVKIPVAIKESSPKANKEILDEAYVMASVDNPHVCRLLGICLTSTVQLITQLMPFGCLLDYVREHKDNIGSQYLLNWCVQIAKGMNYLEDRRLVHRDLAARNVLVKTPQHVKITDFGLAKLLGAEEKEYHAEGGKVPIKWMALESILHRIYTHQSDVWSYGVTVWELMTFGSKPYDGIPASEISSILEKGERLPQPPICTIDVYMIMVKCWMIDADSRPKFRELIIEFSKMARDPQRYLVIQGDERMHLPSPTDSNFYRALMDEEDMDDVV", "settings": "read-out: % control", "procedure,_shortened": "(§1)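 Test agents were profiled at a single concentration of 1 μM (DMSO vehicle) on a near-complete set of 468 kinases. Signal is reported relative to vehicle (100%) and a fully displacing control (0%).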"}, "FLT3(R834Q)": {"target": "T1, FLT3(R834Q) (Homo sapiens, UniProt P36888, R834Q)", "T1 sequence (P36888 27-993 R834Q)": "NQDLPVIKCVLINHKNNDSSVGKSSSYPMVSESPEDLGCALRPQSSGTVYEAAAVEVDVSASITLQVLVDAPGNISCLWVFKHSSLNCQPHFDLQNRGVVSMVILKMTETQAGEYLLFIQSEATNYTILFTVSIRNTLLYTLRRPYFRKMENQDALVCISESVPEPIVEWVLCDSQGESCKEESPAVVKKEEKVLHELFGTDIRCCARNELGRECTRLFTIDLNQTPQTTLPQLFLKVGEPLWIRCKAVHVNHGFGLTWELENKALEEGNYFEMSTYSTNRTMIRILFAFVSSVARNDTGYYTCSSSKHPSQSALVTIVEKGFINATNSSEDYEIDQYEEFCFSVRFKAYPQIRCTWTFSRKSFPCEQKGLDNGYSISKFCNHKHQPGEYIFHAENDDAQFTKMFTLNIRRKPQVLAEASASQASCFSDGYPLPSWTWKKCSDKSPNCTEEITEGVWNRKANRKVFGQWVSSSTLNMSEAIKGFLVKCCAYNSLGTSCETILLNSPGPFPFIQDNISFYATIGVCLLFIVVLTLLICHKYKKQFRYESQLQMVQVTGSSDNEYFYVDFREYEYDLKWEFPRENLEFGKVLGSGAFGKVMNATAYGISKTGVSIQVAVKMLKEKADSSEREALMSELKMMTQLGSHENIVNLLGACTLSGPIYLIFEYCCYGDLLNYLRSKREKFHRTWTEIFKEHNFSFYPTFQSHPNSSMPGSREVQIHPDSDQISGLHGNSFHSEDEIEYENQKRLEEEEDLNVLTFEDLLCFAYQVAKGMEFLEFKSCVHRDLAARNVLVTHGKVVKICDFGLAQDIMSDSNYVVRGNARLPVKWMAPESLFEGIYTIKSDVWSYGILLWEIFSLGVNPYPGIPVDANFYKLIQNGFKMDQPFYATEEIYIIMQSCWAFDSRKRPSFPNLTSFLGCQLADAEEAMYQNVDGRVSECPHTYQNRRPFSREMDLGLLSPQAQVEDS", "settings": "read-out: % control", "procedure,_shortened": "as §1"}, "[1]": {"target": "T2, JAK3(JH1domain-catalytic) (Homo sapiens, UniProt P52333)", "T2 construct": "JAK3(JH1domain-catalytic); purchased KinomeScan®", "T2 sequence (P52333 822-1111 limits assumed)": "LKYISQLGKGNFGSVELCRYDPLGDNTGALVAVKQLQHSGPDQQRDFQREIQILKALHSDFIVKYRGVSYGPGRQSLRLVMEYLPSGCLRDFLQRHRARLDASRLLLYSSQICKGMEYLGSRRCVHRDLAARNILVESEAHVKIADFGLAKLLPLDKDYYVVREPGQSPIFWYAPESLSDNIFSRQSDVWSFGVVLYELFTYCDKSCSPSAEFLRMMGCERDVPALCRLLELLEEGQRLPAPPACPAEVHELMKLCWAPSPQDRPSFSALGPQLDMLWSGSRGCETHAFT", "settings": "read-out: % control", "procedure,_shortened": "as §1"}, "PFPK5(P. falciparum)": {"target": "PFPK5(P. falciparum) (Plasmodium falciparum, UniProt P61075)", "sequence (P61075 whole entry)": "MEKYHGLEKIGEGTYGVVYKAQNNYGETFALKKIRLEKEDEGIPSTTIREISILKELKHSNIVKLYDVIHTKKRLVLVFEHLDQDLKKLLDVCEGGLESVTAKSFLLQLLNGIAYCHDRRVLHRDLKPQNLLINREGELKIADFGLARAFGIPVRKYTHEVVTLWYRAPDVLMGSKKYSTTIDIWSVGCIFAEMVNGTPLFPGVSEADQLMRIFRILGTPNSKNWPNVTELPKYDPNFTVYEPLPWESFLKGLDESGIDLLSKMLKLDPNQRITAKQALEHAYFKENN", "settings": "read-out: % control", "procedure,_shortened": "as §1"}, "PFTAIRE2": {"target": "PFTAIRE2 (Homo sapiens, UniProt Q96Q40)", "sequence (Q96Q40 whole entry)": "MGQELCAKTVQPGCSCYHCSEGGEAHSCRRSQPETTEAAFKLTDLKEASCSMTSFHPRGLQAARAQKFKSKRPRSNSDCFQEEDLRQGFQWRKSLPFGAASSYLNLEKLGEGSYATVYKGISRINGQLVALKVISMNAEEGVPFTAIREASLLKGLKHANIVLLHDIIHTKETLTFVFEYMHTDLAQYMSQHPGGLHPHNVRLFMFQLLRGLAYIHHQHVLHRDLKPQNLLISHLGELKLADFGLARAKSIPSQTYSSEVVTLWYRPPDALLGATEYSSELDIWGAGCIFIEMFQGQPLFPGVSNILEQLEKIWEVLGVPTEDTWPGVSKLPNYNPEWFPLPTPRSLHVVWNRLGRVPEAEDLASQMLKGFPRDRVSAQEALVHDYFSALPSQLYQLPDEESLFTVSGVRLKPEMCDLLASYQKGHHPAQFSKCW", "settings": "PFTAIRE2, 1 μM; read-out: % control", "procedure,_shortened": "as §1"}, "PIK4CB": {"target": "T3, PIK4CB (Homo sapiens, UniProt Q9UBF8)", "T3 construct": "purchased KinomeScan® (panel service)", "settings": "read-out: % control", "procedure,_shortened": "as §1"}, "PLK4": {"target": "T4, PLK4 (Homo sapiens, UniProt O00444)", "T4 sequence (O00444 1-970)": "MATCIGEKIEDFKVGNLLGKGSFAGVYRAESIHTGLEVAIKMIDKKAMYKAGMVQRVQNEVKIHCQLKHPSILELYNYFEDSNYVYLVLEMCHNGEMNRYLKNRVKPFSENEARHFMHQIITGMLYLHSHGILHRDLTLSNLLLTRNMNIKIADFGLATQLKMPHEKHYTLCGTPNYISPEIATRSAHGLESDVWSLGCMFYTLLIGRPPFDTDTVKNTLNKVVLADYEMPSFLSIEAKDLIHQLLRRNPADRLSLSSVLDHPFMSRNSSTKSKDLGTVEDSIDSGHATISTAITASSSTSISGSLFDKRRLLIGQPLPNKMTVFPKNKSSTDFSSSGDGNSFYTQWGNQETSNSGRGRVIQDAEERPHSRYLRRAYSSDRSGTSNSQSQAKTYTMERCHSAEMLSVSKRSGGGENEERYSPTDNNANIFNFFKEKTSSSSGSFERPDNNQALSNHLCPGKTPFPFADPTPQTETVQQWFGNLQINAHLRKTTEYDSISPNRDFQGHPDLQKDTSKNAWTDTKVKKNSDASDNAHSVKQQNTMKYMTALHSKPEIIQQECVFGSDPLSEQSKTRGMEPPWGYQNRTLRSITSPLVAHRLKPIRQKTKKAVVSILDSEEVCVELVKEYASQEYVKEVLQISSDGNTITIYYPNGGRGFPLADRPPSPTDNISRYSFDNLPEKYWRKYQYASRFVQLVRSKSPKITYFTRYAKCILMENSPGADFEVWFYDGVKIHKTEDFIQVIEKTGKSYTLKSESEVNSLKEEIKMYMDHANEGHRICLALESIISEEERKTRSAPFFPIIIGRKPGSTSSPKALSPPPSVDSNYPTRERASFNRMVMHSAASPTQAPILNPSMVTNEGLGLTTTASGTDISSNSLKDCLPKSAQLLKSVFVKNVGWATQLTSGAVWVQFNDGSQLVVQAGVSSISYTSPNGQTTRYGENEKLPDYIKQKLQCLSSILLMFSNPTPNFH", "settings": "PLK4, 1 μM; read-out: % control", "procedure,_shortened": "as §1"}, "[2]": {"target": "T5, RSK4(Kin.Dom.2-C-terminal) (Homo sapiens, UniProt Q9UK32)", "T5 construct": "RSK4(Kin.Dom.2-C-terminal)", "T5 sequence (Q9UK32 426-683 limits assumed)": "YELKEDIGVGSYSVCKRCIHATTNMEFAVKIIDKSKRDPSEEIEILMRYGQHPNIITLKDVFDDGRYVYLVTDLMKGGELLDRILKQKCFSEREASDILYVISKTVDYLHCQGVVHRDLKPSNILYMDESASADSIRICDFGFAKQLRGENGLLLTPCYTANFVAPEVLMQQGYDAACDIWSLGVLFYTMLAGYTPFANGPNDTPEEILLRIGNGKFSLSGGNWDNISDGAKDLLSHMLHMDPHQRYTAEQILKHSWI", "settings": "read-out: % control", "procedure,_shortened": "as §1"}, "TRKA": {"target": "TRKA (Homo sapiens, UniProt P04629)", "sequence (P04629 33-796)": "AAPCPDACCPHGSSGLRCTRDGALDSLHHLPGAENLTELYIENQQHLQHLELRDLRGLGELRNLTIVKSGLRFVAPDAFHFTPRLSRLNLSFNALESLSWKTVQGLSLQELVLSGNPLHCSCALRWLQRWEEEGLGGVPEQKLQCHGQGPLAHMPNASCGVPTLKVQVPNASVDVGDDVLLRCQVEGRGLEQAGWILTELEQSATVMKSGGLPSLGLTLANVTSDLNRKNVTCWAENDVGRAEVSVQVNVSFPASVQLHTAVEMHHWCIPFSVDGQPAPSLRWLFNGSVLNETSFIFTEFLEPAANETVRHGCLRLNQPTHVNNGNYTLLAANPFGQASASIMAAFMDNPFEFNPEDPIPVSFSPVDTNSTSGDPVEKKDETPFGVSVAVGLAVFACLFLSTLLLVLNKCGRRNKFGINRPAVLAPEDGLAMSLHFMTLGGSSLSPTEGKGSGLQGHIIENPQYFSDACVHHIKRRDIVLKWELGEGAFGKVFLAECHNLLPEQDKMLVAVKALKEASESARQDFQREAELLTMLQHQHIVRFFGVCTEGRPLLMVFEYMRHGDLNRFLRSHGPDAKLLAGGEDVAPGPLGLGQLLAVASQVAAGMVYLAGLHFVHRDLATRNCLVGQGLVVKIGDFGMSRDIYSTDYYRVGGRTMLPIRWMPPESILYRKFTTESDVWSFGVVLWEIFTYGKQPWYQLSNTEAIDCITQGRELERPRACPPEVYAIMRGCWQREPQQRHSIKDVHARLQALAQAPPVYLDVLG", "settings": "read-out: % control", "procedure,_shortened": "as §1"}}, "data": [{"smiles": "CNc1c(-c2cnn([C@H]3CCN(C(C)=O)C[C@@H]3F)c2)cnc2[nH]cc(Cl)c12", "note": "[Compound 77, 1-((3S,4S)-4-(4-(3-chloro-4-(methylamino)-1H-pyrrolo[2,3-b]pyridin-5-yl)-1H-pyrazol-1-yl)-3-fluoropiperidin-1-yl)ethan-1-one]", "values": [{"measurement": "remaining binding at 1 µM", "setting": "EGFR(L747-T751del, Sins)", "value": 88, "unit": "%"}, {"measurement": "remaining binding at 1 µM", "setting": "FLT3(R834Q)", "value": 45, "unit": "%"}, {"measurement": "remaining binding at 1 µM", "setting": "[1]", "value": 8.2, "unit": "%"}, {"measurement": "remaining binding at 1 µM", "setting": "PFPK5(P. falciparum)", "value": 100, "unit": "%"}, {"measurement": "remaining binding at 1 µM", "setting": "PFTAIRE2", "value": 100, "unit": "%"}, {"measurement": "remaining binding at 1 µM", "setting": "PIK4CB", "value": 59, "unit": "%"}, {"measurement": "remaining binding at 1 µM", "setting": "PLK4", "value": 27, "unit": "%"}, {"measurement": "remaining binding at 1 µM", "setting": "[2]", "value": 98, "unit": "%"}, {"measurement": "remaining binding at 1 µM", "setting": "TRKA", "value": 0.65, "unit": "%"}]}, {"smiles": "CNc1c(-c2ccc(C(=O)N3CCC(N4CCOCC4)CC3)cc2)cnc2[nH]cc(Cl)c12", "note": "[Compound 96, (4-(3-chloro-4-(methylamino)-1H-pyrrolo[2,3-b]pyridin-5-yl)phenyl)(4-morpholinopiperidin-1-yl)methanone]", "values": [{"measurement": "remaining binding at 1 µM", "setting": "EGFR(L747-T751del, Sins)", "value": 76, "unit": "%"}, {"measurement": "remaining binding at 1 µM", "setting": "FLT3(R834Q)", "value": 52, "unit": "%"}, {"measurement": "remaining binding at 1 µM", "setting": "[1]", "value": 7.8, "unit": "%"}, {"measurement": "remaining binding at 1 µM", "setting": "PFPK5(P. falciparum)", "value": 100, "unit": "%"}, {"measurement": "remaining binding at 1 µM", "setting": "PFTAIRE2", "value": 100, "unit": "%"}, {"measurement": "remaining binding at 1 µM", "setting": "PIK4CB", "value": 58, "unit": "%"}, {"measurement": "remaining binding at 1 µM", "setting": "PLK4", "value": 27, "unit": "%"}, {"measurement": "remaining binding at 1 µM", "setting": "[2]", "value": 91, "unit": "%"}, {"measurement": "remaining binding at 1 µM", "setting": "TRKA", "value": 11, "unit": "%"}]}, {"smiles": "O=C(c1ccc(-c2cnc3[nH]cc(Cl)c3c2NC2CCCC2)cc1)N1CCC(N2CCOCC2)CC1", "note": "[Compound 101, (4-(3-chloro-4-(cyclopentylamino)-1H-pyrrolo[2,3-b]pyridin-5-yl)phenyl)(4-morpholinopiperidin-1-yl)methanone]", "values": [{"measurement": "remaining binding at 1 µM", "setting": "EGFR(L747-T751del, Sins)", "value": 100, "unit": "%"}, {"measurement": "remaining binding at 1 µM", "setting": "FLT3(R834Q)", "value": 75, "unit": "%"}, {"measurement": "remaining binding at 1 µM", "setting": "[1]", "value": 62, "unit": "%"}, {"measurement": "remaining binding at 1 µM", "setting": "PFPK5(P. falciparum)", "value": 100, "unit": "%"}, {"measurement": "remaining binding at 1 µM", "setting": "PFTAIRE2", "value": 91, "unit": "%"}, {"measurement": "remaining binding at 1 µM", "setting": "PIK4CB", "value": 100, "unit": "%"}, {"measurement": "remaining binding at 1 µM", "setting": "PLK4", "value": 78, "unit": "%"}, {"measurement": "remaining binding at 1 µM", "setting": "[2]", "value": 88, "unit": "%"}, {"measurement": "remaining binding at 1 µM", "setting": "TRKA", "value": 49, "unit": "%"}]}]}
